The test system of assay [1] is stress ulcer. Nature of the assay: Inhibition on stress ulcer. The assay is classed as in vivo, Sprague-Dawley rats. The following applies: stress ulcer (immobilization, water bath 22° C., seven hours), rat, oral; for Inhibition %: 32 mg/kg, ulcer area vs control. On the procedure: (B) Inhibition on stress ulcer
Five Sprague-Dawley rats weighing about 200 g were used per group. Each animal was immobilized in a small cage and put in a water bath allowing to respire. The temperature of the water bath kept at 22° C. The test compound was administered orally just before the immobilization. Seven hours later, the animals were sacrificed and their stomachs were removed. The stomach was then fixed with 2% formalin. The area of ulcers was measured for each animal. The mean area (mm^2) in the medicated animals was compared with that in the control animals.

The subject of assay [2] is ethanol ulcer. The experiment in a line: Inhibition on ethanol ulcer. The assay is classed as in vivo, male Spraque-Dawley rats. The note with it: rat, oral, 30 minutes before absolute ethanol; for Inhibition %: 32 mg/kg, ulcer area vs control. On the procedure:
(A) Inhibition on ethanol ulcer
Five male Spraque-Dawley rats, aged 7 weeks and weighing about 200 g, were used per group for the study on ethanol ulcer after the fast for 24 hours.
Test compound was suspended in 0.1% methylcellulose aqueous solution, and the suspension (5 ml/kg) was orally given to each rat.
The control group was given a vehicle, i.e. 0.1% methylcellulose aqueous solution (5 ml/kg), alone in the same way.
Absolute ethanol (5 ml/kg) was orally administered 30 minutes after dosing with test compound, and one hour later, the rats were sacrificed and their stomachs were removed. The area of ulcers of each rat was measured. The mean area […] in the medicated group was compared with that in the control group.

Consider three molecules from patent US4725601A, “Certain imidazo[1,2-a]pyridines useful in the treatment of ulcers” (Fujisawa Pharmaceutical Co., Ltd., priority 1985, dated 1988).

Usually ED50 stands for the dose at which the effect has come halfway, by size or by number of responders.

Take `C#CCOCc1c(C)nc2c(OCc3ccccc3C)cccn12` [Test Compound (1), 8-(2-Methylbenzyloxy)-3-(2-propynyloxymethyl)-2-methylimidazo[1,2-a]pyridine]: the ED50 in assay [1] (7 h) came to 0.15 mg/kg; in assay [2], 1.1 mg/kg. Further, the values for the Inhibition % in assay [1] and in assay [2] were 100% and 94.4%, respectively.
With `C#CCOCc1c(C)nc2c(OCc3ccccc3Cl)cccn12` [Test Compound (2), 8-(2-Chlorobenzyloxy)-3-(2-propynyloxymethyl)-2-methylimidazo[1,2-a]pyridine], the Inhibition % in assay [1] is recorded as 100%; in assay [2] it was 98.2%.
For `C#CCc1c(C)nc2c(OCc3ccccc3C)cccn12` [Test Compound (3), 8-(2-Methylbenzyloxy)-3-(2-propynyl)-2-methylimidazo[1,2-a]pyridine] the same measures were 100% and 91.8%.
